Non-standard residues stand in square brackets, D forms with d. Residues, ends and D or L forms follow the SMILES beside them. No end group written: not given here. pS = N[C@@H](COP(=O)(O)O)C(=O)O
Assays:
14-3-3 proteins = assay: Surface plasmon resonance, statements across the 14-3-3 isoforms; assay type: binding, human; details: SPR, prior to on-chip phosphorylation
Excerpt: (§1) In addition to fluorescence polarization, we used surface plasmon resonance (SPR) as a second, complementary approach to quantify the binding parameters for the TASK-3 C-terminus (Fig. 3, Table 1). […] We developed an on-chip phosphorylation protocol (Fig. 3A) where we first captured the GST fusion proteins on the chip surface with an antibody against GST (which was crosslinked at a high density to the metal surface) and then phosphorylated GST–TASK-3 with recombinantly expressed PKA catalytic subunit (also known as PRKACA; [Knape et al., 2015]). […] Consistent with the results of fluorescence polarization titration, no binding of 14-3-3 proteins was observed prior to on-chip phosphorylation, whereas all 14-3-3 isoforms did bind upon phosphorylation of the TASK-3 C-terminus (Fig. 3C) with equilibrium dissociation constants (Fig. 3D, Table 1) between 45±9 nM (14-3-3γ) to 742±29 nM (14-3-3σ). Depending on the 14-3-3 isoform, these values were very similar (14-3-3η and 14-3-3τ) or differed two- (14-3-3β) to fivefold (14-3-3ε, 14-3-3ζ and 14-3-3σ) from the values determined by fluorescence polarization (Fig. 2, Table 1). […]
(§2) Fig. 3. Affinities of the seven mammalian 14-3-3 isoforms for the phosphorylated TASK-3 C-terminus obtained by surface plasmon resonance are consistent with values obtained using fluorescence polarization. […]

14-3-3γ = target: T1, 14-3-3γ (Homo sapiens, UniProt P61981); assay: Surface plasmon resonance, 14-3-3γ; assay type: binding; details: GST fusion captured by anti-GST antibody on chip, phosphorylated on-chip with PKA catalytic subunit; 150 mM NaCl, 20 mM HEPES, 0.005% Tween 20 pH 7.5, 20°C; equilibrium, sigmoidal dose-response fit; ±s.e.m., at least six repeats; read-out: Kd, SPR, 14-3-3γ
T1 construct: Open reading frames encoding human 14-3-3 proteins were inserted into the pMAL2Cx vector at EcoRI and HindIII restriction sites; made in house
T1 sequence (P61981 1-247): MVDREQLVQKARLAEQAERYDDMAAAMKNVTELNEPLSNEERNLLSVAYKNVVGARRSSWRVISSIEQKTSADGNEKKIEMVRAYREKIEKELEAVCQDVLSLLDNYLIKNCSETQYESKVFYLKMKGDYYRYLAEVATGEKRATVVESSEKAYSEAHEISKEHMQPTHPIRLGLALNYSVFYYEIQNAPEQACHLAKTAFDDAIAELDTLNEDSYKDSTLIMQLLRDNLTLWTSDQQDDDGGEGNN
Excerpt: as §1, §2

14-3-3σ [1] = target: T2, 14-3-3σ (Homo sapiens, UniProt P31947); assay: Surface plasmon resonance, 14-3-3σ; assay type: binding; details: GST fusion captured by anti-GST antibody on chip, phosphorylated on-chip with PKA catalytic subunit; 150 mM NaCl, 20 mM HEPES, 0.005% Tween 20 pH 7.5, 20°C; equilibrium, sigmoidal dose-response fit; ±s.e.m., at least six repeats; read-out: Kd, SPR, 14-3-3σ
T2 construct: Open reading frames encoding human 14-3-3 proteins were inserted into the pMAL2Cx vector at EcoRI and HindIII restriction sites; made in house
T2 sequence (P31947 1-248): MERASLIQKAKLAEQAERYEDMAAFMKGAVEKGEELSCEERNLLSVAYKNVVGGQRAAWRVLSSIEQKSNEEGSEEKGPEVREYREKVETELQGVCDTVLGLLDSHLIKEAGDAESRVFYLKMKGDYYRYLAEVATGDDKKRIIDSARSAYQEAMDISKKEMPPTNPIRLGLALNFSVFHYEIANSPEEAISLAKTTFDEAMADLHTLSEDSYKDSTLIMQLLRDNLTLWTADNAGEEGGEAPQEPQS
Excerpt: as §1, §2

14-3-3ε = target: T3, 14-3-3ε (Homo sapiens, UniProt P62258); assay: Fluorescence polarization titration with 14-3-3ε; assay type: binding; details: versus TASK-3 pS373
T3 construct: Open reading frames encoding human 14-3-3 proteins were inserted into the pMAL2Cx vector at EcoRI and HindIII restriction sites; made in house
Procedure: (§3) TASK-1 or TASK-3 C-terminal fluorescent peptides (10 nM), comprising the last 15 amino acids of the respective C-termini, were titrated with concentrations of the 14-3-3 proteins ranging from 1 nM to 120 µM (Fig. 2), and the equilibrium dissociation constants of 14-3-3 proteins were calculated for TASK-1 phosphorylated at S393 (TASK-1 pS393; the conserved serine residue of the mode III 14-3-3-binding motif) and for TASK-3 phosphorylated at S373 (TASK-3 pS373) (Table 1). They ranged from 7.5±0.14 µM (mean±s.e.m.; 14-3-3β) to 49.4±2 µM (14-3-3τ) for TASK-1, whereas dissociation constants for TASK-3 ranged from 110±10 nM (14-3-3η) to 3.6±0.44 µM (14-3-3σ). The latter value matches the result determined previously by [Anders et al. (2013]) for the TASK-3 C-terminal hexapeptide using isothermal titration calorimetry. […]
(§4) Fig. 2. […] Fluorescence polarization titration of fluorescein-labeled TASK-1 pS393 (black), TASK-3 pS373 (red) and TASK-3 pS373 ΔV374 (blue) peptide (10 nM) with increasing concentrations of the indicated 14-3-3 isoform. Fluorescein was excited at 485 nm, and fluorescence polarization was monitored at 535 nm. […]
(§5) Interactions between 14-3-3 proteins and TASK-1 and TASK-3 C-terminal peptides and variants were investigated using a fluorescence polarization assay ([Moll et al., 2006]; [Muda et al., 2014]). […]

14-3-3β = target: T4, 14-3-3β (Homo sapiens, UniProt P31946); assay: Fluorescence polarization titration with 14-3-3β; assay type: binding; details: versus TASK-3 pS373
T4 construct: Open reading frames encoding human 14-3-3 proteins were inserted into the pMAL2Cx vector at EcoRI and HindIII restriction sites; made in house
Procedure: as §3, §4, §5

[2] = test system: 14-3-3 proteins (all seven isoforms); assay: Fluorescence polarization titration, statements across the 14-3-3 isoforms; assay type: binding, human; details: fluorescence polarization; 14-3-3β, 14-3-3γ, 14-3-3ζ, 14-3-3η and 14-3-3τ
Procedure: TASK-1 or TASK-3 C-terminal fluorescent peptides (10 nM), comprising the last 15 amino acids of the respective C-termini, were titrated with concentrations of the 14-3-3 proteins ranging from 1 nM to 120 µM (Fig. 2), and the equilibrium dissociation constants of 14-3-3 proteins were calculated for TASK-1 phosphorylated at S393 (TASK-1 pS393; the conserved serine residue of the mode III 14-3-3-binding motif) and for TASK-3 phosphorylated at S373 (TASK-3 pS373) (Table 1). They ranged from 7.5±0.14 µM (mean±s.e.m.; 14-3-3β) to 49.4±2 µM (14-3-3τ) for TASK-1, whereas dissociation constants for TASK-3 ranged from 110±10 nM (14-3-3η) to 3.6±0.44 µM (14-3-3σ). The latter value matches the result determined previously by [Anders et al. (2013]) for the TASK-3 C-terminal hexapeptide using isothermal titration calorimetry. The dissociation constants of the seven mammalian 14-3-3 isoforms for the same TASK C-terminal peptide differed up to sevenfold for TASK-1-derived peptides and up to 30-fold for TASK-3-derived peptides. […] No binding of any 14-3-3 isoform to any TASK C-terminal peptide was observed when the peptides were not phosphorylated.
Fig. 2. […] Fluorescence polarization titration of fluorescein-labeled TASK-1 pS393 (black), TASK-3 pS373 (red) and TASK-3 pS373 ΔV374 (blue) peptide (10 nM) with increasing concentrations of the indicated 14-3-3 isoform. Fluorescein was excited at 485 nm, and fluorescence polarization was monitored at 535 nm. A monophasic fit was used to fit the data (Goodness-of-fit: R^2 from 0.76 to 0.98). No binding was detectable for the unphosphorylated TASK C-terminal peptides. The assay was repeated at least six times for each data point with two batches of independently purified 14-3-3 proteins. Error bars depict s.e.m. (A) 14-3-3β, (B) 14-3-3γ, (C) 14-3-3ε, (D) 14-3-3ζ, (E) 14-3-3η and (F) 14-3-3τ.
[Mant et al. (2011)] report that both serine residues present in the TASK-1 C-terminus can be phosphorylated in vitro by the recombinant catalytic subunit of PKA. […] Next, using fluorescence polarization titration, we determined how phosphorylation of S392 affects the affinity of all seven mammalian 14-3-3 proteins for the TASK-1 C-terminus – either when phosphorylated alone or in combination with phosphorylation of S393 (Table S1). […] Because all Kd values determined for TASK-1 pS392 and the doubly phosphorylated protein (at S392 and S393) were substantially higher than those measured for TASK-1 pS393 (Table S1), we conclude that phosphorylation of S392 cannot substitute for phosphorylated S393 in creating a high-affinity 14-3-3 binding site. On the contrary, our results are consistent with an inhibitory role for phosphorylation of S392 with respect to 14-3-3-mediated binding.
Interactions between 14-3-3 proteins and TASK-1 and TASK-3 C-terminal peptides and variants were investigated using a fluorescence polarization assay ([Moll et al., 2006]; [Muda et al., 2014]). Fluorescein-labeled peptides were purchased from Peps4Life Sciences (Heidelberg, Germany). All measurements were performed in buffer containing 20 mM MOPS, 150 mM NaCl, 0.005% (v/v) CHAPS pH 7.0, using a Fusion™ α-FP microtiter plate reader at room temperature in a 384-well microtiter plater (Optiplate 384, black; Packard, Meriden, CT). 14-3-3 proteins were serially diluted from 100 µM to 1 nM and incubated with 10 nM of fluorescently labeled peptide. The fluorescence polarization signal was detected for 2 s at an excitation wavelength of 485 nm with an emission fluorescence polarization filter wavelength of 535 nm and a photomultiplier voltage of 1100. Data were analyzed with GraphPad Prism 6.0 (GraphPad Software, San Diego, CA) by plotting the obtained fluorescence polarization signal in millipolarization units (mPol) against the logarithm of the 14-3-3 protein concentration. The data were then fitted using a monophasic fit.

14-3-3σ [3] = target: T2, 14-3-3σ; assay: Fluorescence polarization titration with 14-3-3σ; assay type: binding
Procedure: as §3, §4, §5

T3 sequence (P62258 whole entry): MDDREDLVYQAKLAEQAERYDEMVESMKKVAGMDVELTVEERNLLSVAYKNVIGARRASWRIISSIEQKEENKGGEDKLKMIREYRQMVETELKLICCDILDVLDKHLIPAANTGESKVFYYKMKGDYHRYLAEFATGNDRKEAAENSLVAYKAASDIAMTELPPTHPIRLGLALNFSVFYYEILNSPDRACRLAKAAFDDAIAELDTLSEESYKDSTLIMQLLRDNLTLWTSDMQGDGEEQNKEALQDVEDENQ
T4 sequence (P31946 whole entry): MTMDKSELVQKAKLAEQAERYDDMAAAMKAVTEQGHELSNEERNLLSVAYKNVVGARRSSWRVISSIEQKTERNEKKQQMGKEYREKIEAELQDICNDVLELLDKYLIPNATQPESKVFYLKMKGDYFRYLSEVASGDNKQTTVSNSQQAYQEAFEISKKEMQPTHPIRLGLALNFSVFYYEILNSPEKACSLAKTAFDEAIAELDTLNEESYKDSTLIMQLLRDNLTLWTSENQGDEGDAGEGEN

Compound	binding of 14-3-3 proteins (in words) (14-3-3 proteins)	Kd (14-3-3γ) [nM]	Kd (14-3-3σ [1]) [nM]	fold reduction of affinity by the C-terminal deletion, 14-3-3 epsilon (14-3-3ε) [fold]	fold reduction of affinity by the C-terminal deletion, 14-3-3β (14-3-3β)	affinity range (in words) [2]	Kd, fluorescence polarization, 14-3-3σ (14-3-3σ [3]; 10 nM fluorescein-labeled peptide titrated with 14-3-3 (1 nM to 120 µM), 20 mM MOPS, 150 mM NaCl, 0.005% CHAPS pH 7.0, room temperature, monophasic fit, ±s.e.m., n.b. = no binding detectable)	interaction with 14-3-3σ (in words) (14-3-3σ [3]; fluorescence polarization titration)
GST–TASK-3-CT15: Glutathione S-transferase fused to the TASK-3 C-terminal 15 residues, from E. coli, phosphorylated on-chip with PKA (SFTDHQRLMKRRKSV; also: GST fusion, end not given here, phosphorylated with PKA, site not given here)	no binding	45 ± 9	742 ± 29	–	–	–	–	–
CSCC[C@H](NC(=O)[C@H](CC(C)C)NC(=O)[C@H](CCCNC(=N)N)NC(=O)[C@H](CCC(N)=O)NC(=O)[C@H](Cc1c[nH]cn1)NC(=O)[C@H](CC(=O)O)NC(=O)[C@@H](NC(=O)[C@H](Cc1ccccc1)NC(=O)[C@H](CO)NC(=O)[C@@H](N)CS)[C@@H](C)O)C(=O)N[C@@H](CCCCN)C(=O)N[C@@H](CCCNC(=N)N)C(=O)N[C@@H](CCCNC(=N)N)C(=O)N[C@@H](CCCCN)C(=O)N[C@@H](COP(=O)(O)O)C(=O)O [TASK-3 pS373 ΔV374] (H-CSFTDHQRLMKRRK[pS]-OH; N-terminus assumed)	–	–	–	23	three	low micromolar range	n.b.±n.b.	could no longer be measured

— article PMC4760375, “A dual phosphorylation switch controls 14-3-3-dependent cell surface expression of TASK-1” (Journal of Cell Science, 2016)
